Assay results as given in publication PMC8277899, “A novel RyR1-selective inhibitor prevents and rescues sudden death in mouse models of malignant hyperthermia and heat stroke” (Nature Communications, 2021).
Where “and” joins values, the source holds several entries; their conditions need not be identical. Identical values can stand only once.

Key:
[1] = system: FDB muscle cells from R2509C mice; assay: Ca2+ imaging (Cal520, fura-2) of isolated single FDB cells from R2509C mice, rest, halothane, isoflurane; type: cell-based, mouse
Procedure: (§1) WT and mutant mice (R2509C, 8- to 20-week old; R163C, 12- to 16-week old, and G2435R, 12- to 16-week old) were euthanized and flexor digitorum brevis (FDB) muscles were dissected and incubated with 2 mg/mL collagenase (Worthington Biochemical Co., NJ, USA) in the HEPES-Krebs solution containing 2 mg/mL bovine serum albumin for 2–3 h at 37 °C. Following incubation, single cells were separated by gentle trituration in collagenase-free HEPES-Krebs solution. Isolated single FDB cells were seeded on a laminin-coated cover slip of the 35 mm glass-bottom dish or on 96 well plate coated with Cultrex basement membrane matrix (Trevigen, Minneapolis, USA).
Isolated single FDB cells were incubated with 4 µM Cal520-AM (AAT Bioquest, CA, USA) or fura-2-AM (Thermo Fisher Scientific) dye in the HEPES-Krebs solution (140 mM NaCl, 5 mM KCl, 2 mM CaCl2, 1 mM MgCl2, 11 mM glucose, 5 mM HEPES, pH 7.4) for 30 min at 37 °C. The cells were then washed three times with the HEPES-Krebs solution to remove excess dye, and after 30 min of de-esterification, fluorescence images were obtained with a 20X (NA = 0.75) objective lens of an inverted microscope (Nikon TE2000-E Japan) equipped with the sCMOS camera (Zyla, Andor, Belfast, Northern Ireland) using Metamorph v7 (Molecular Devices). Cal520 was excited at 480 ± 15 nm, and fluorescence was measured at wavelengths of 525 ± 25 nm. Fura-2 was excited at alternating lights of 340 ± 6 nm and 380 ± 6 nm, fluorescent light was detected at 510 ± 40 nm, and the ratio of fluorescence excited at 340 nm to that at 380 nm was determined. Imaging experiments were carried out at 26 °C by superfusing a HEPES-Krebs solution with or without halothane or isoflurane. Cpd1 was administered 5 min before measurements. For Mn^2+ quenching experiments, fura-2 was excited at 360 ± 12 nm and emitted fluorescence at 510 ± 40 nm was monitored. The cells were perfused with basal Krebs solution (140 mM NaCl, 5 mM KCl, 1 mM MgCl2, 11 mM glucose, 2 mM CaCl2, 10 mM HEPES, pH 7.4) for 60 s to obtain the baseline signal and then perfused with Mn^2+ quenching Krebs solution (140 mM NaCl, 5 mM KCl, 1 mM MgCl2, 11 mM glucose, 0.5 mM MnCl2, 10 mM HEPES, pH 7.4) for 180 s followed by reperfusion with basal Krebs solution for 120 s.

[2] = system: soleus muscles from WT mice; assay: Muscle force in vitro, soleus from WT mice (heat contracture, twitch, tetanus); type: cell-based, mouse; design: stress (stress-frequency relationship): unit not given beside the values
Procedure: Muscle contraction measurement was assessed using intact soleus muscle as follows. WT and R2509C mice (8- to 20-week old) were anesthetized with an i.p. injection of sodium pentobarbital (70 mg/kg body weight) and the soleus muscles were dissected. The isolated muscles were mounted between a force transducer (UL-100; Minebea Co., Tokyo, Japan) and a fixed hook in a chamber containing Krebs solution (140 mmol/L NaCl, 5 mmol/L KCl, 2 mmol/L CaCl2, 1 mmol/L MgCl2, 1 mmol/L NaH2PO4, 25 mmol/L NaHCO3, and 11 mmol/L glucose) bubbled with 95% O2 and 5% CO2 at 25 °C. The muscle force was recorded and analyzed by LabChart v6 (AdInstruments, Dunedin, New Zealand). The muscles were stretched to determine the length which produced maximum twitch contraction in response to field stimulation for 1 msec at supramaximal voltage. For caffeine contracture studies, muscles were exposed for 2 min to Krebs solution containing 10, 15, or 20 mM caffeine. For heat-induced contracture studies, muscles were exposed to Krebs solution warmed at 27, 35, 40, and 42 °C until basal force peaked. For twitch and tetanic contraction measurements, muscles were stimulated at 1 min intervals with 20 trains of 1, 2, 5, 10, 20, 50, 100, and 200 Hz pulses. For Cpd1 treatment, muscles were incubated with Krebs solution containing 3 µM Cpd1 15 min prior to measurements. Absolute contractile force was normalized to the maximum diameter of the muscle.

G2435R mice = assay: In vivo heat stress challenge in awake restrained G2435R mice (38 °C chamber); design: species or system mouse; conditions: pretreatment 30 mg/kg
[3] = system: FDB muscle fibers from R163C mice; assay: In vitro [Ca2+]i by Ca2+-selective microelectrode in FDB fibers from R163C mice; type: cell-based, mouse; conditions: 0-5 µM
Procedure: as §1
Ca^2+ ion specific microelectrode recordings were performed as follows[38],[50]. For in vivo measurements, WT and heterozygous R163C mice (12- to 16-week old) were anesthetized by i.p. injection of 100 mg/kg ketamine and 5 mg/kg xylazine and placed on a 37 °C heating pad and their temperature was monitored. The vastus lateralis was exposed surgically after which its muscle fibers were impaled with double-barreled Ca^2+-selective microelectrode, and the potentials were recorded via a high-impedance amplifier (WPI Duo 773 electrometer; WPI, Sarasota, FL, USA). […] Muscle fibers were impaled with the microelectrodes as above and [Ca^2+]i was determined in the presence of varying (0–5 µM) concentrations of Cpd1.

mice = assay: Observation of side effects in mice; type: in vivo, mouse
RyR1 channel = system: RyR1 channel; design: method as in PMID 31299492; conditions: HEK293 cell-based assay; read-out: IC50 for inhibiting the RyR1 channel; cited from earlier work

SMILES: CCCCCCCCn1cc(C(=O)O)c(=O)c2cc3c(cc21)OCO3 [Cpd1, 6,7-(methylenedioxy)-1-octyl-4-quinolone-3-carboxylic acid]
- effect on isoflurane-induced increase in [Ca2+]i ([1]; R2509C cells, 0.1 μM): completely prevented
- effect on resting [Ca2+]i (Cal520) ([1]; R2509C cells, 0.1 μM): reduced
- Ca2+ signal (Cal520, F/F0) ([1]; R2509C cells, 0.1 μM Cpd1, halothane 0.0001): 1
- Ca2+ signal (Cal520, F/F0) ([1]; R2509C cells, 0.1 μM Cpd1, halothane 0.001): 1.0324 and 1.0472 and 0.9774 and 0.9848 and 0.9736
- Ca2+ signal (Cal520, F/F0) ([1]; R2509C cells, 0.1 μM Cpd1, halothane 0.003): 1.0085 and 1.0149 and 0.9846 and 0.9811 and 0.9717
- Ca2+ signal (Cal520, F/F0) ([1]; R2509C cells, 0.1 μM Cpd1, halothane 0.01): 1.0131 and 1.0119 and 0.9966 and 0.9808 and 0.9633
- Ca2+ signal (Cal520, F/F0) ([1]; R2509C cells, 0.1 μM Cpd1, halothane 0.03): 0.9989 and 1.0012 and 1.0266 and 1.0111 and 1.0033
- Ca2+ signal (Cal520, F/F0) ([1]; R2509C cells, 0.1 μM Cpd1, halothane 0.1): 1.0006 and 0.9977 and 1.0575 and 1.0571 and 1.0156
- Ca2+ signal (fura-2 ratio) ([1]; R2509C cells, 0.1 μM Cpd1, isoflurane 0): 1.236 and 1.532 and 1.49 and 1.463 and 1.64 and 1.372 and 1.497 and 1.401
- Ca2+ signal (fura-2 ratio) ([1]; R2509C cells, 0.1 μM Cpd1, isoflurane 0.1): 1.237 and 1.533 and 1.482 and 1.467 and 1.643 and 1.374 and 1.485 and 1.496
- Ca2+ signal (fura-2 ratio) ([1]; R2509C cells, 0.1 μM Cpd1, isoflurane 0.2): 1.24 and 1.549 and 1.492 and 1.502 and 1.673 and 1.396 and 1.504 and 1.444
- Ca2+ signal (fura-2 ratio) ([1]; R2509C cells, 0.1 μM Cpd1, isoflurane 0.5): 1.266 and 1.58 and 1.488 and 1.503 and 1.677 and 1.451 and 1.62 and 1.544
- effect on resting [Ca2+]i (fura-2) ([1]; R2509C cells, 0.1 and 0.3 µM): reduced [Ca^2+]i in R2509C cells in a dose-dependent manner
- effect on halothane-induced increases in [Ca2+]i ([1]; R2509C cells, pretreatment 0.1 µM): completely abolished
- Ca2+ signal with Cpd1 relative to None = 1 (sheet Fig S1b) ([1]; R2509C, single experiments): 0.9373 and 0.9655 and 0.9601 and 0.9482 and 0.7826 and 0.8571
- twitch tension ([2]; 3 μM Cpd1): 0.08926 and 0.06376 and 0.0706 and 0.1008 and 0.09044
- stress (stress-frequency relationship) ([2]; 3 μM Cpd1, 1 Hz): 0.07934 and 0.05313 and 0.0706 and 0.09238 and 0.1028
- stress (stress-frequency relationship) ([2]; 3 μM Cpd1, 2 Hz): 0.07934 and 0.05313 and 0.0706 and 0.09238 and 0.1028
- stress (stress-frequency relationship) ([2]; 3 μM Cpd1, 10 Hz): 0.08926 and 0.05313 and 0.0706 and 0.09238 and 0.09866
- stress (stress-frequency relationship) ([2]; 3 μM Cpd1, 50 Hz): 0.7934 and 0.7651 and 0.5531 and 0.7307 and 0.4851
- effect on rise in rectal temperature (G2435R mice): greatly slowed the rise in rectal temperature
- effect on [Ca2+]i in quiescent fibers [3]: reduced [Ca^2+]i in R163C fibers in a dose-dependent manner to the level of WT fibers
- side effects (mice): no apparent side effects of Cpd1 other
- IC50 (RyR1 channel): 12 nM
